The target in data set [1] is T1, Glucagon receptor (Homo sapiens, UniProt P47871). The data set is described as follows: Displacement of [125I]glucagon from human GCGR expressed in CHO cells. The data set is classed as cell-based. Background: In a radioligand displacement assay an active substance lowers the binding of a labelled ligand.
Data set [2] addresses T1, Glucagon receptor. Put plainly: Antagonist activity against human GCGR expressed in CHO cells assessed as glucagon-induced cAMP accumulation. The format is functional, cell-based. Background: cAMP levels reflect the balance of adenylyl cyclase and phosphodiesterase activity.
For data set [3], the target named is T2, Gastric inhibitory polypeptide receptor (Homo sapiens, UniProt P48546).
T2 sequence (P48546 whole entry): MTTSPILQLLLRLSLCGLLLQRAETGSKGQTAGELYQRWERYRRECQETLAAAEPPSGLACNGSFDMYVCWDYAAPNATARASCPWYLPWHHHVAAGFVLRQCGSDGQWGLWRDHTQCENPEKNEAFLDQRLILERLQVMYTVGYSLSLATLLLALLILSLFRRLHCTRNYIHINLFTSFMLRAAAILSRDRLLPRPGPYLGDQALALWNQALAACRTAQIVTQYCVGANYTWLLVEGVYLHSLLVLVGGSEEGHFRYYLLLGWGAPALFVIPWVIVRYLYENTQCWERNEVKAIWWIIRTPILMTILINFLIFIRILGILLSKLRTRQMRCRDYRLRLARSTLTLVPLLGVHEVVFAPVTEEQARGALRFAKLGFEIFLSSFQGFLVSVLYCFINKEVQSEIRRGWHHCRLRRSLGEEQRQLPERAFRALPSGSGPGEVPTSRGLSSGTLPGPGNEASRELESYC
The data set is described as follows: Binding affinity against human GIP.

The species named for data set [4] is Homo sapiens. The data set is described as follows: Selectivity for human glucagon receptor over human GIP.
The target in data set [5] is Glucagon-like peptide 1 receptor, Homo sapiens (UniProt P43220). The data set is described as follows: Binding affinity against human GLP1.
The species entered for data set [6] is Homo sapiens. Put plainly: Selectivity for human glucagon receptor over human GLP1.
Data set [7] is described as follows: Oral bioavailability in dog at 1 mg/kg. The format is ADME, organism-based, Canis lupus familiaris. Conditions: in vivo.
Data set [8] deals with Mus musculus. Put plainly: Inhibition of glucagon-dependent glucose excursion in transgenic mouse expressing human glucagon receptor at 3 to 30 mg/kg, po. The data set is classed as functional, organism-based.
Data set [9] has as its system Rhesus monkey. Put plainly: Inhibition of glucagon-dependent glucose excursion in rhesus monkey at 10 mg/kg, po. The data set is classed as functional, organism-based. Also on record: dose 10 mg/kg. Conditions: Macaca mulatta.
Data set [10] can be described thus: Half life in mouse at 1 mg/kg, iv and 2 mg/kg, po. The format is ADME, organism-based. Conditions: in vivo.
Data set [11] can be described thus: Volume of distribution at steady state in mouse at 1 mg/kg, iv and 2 mg/kg, po. The format is ADME, organism-based. The settings on record: in vivo, read-out: Vdss.
Data set [12] in a line: Oral bioavailability in rat at 2 mg/kg. The data set is classed as ADME, organism-based. Conditions: in vivo.
Data set [13] is described as follows: Half life in rhesus monkey at 0.5 mg/kg, iv and 2 mg/kg, po. The settings on record: in vivo. The format is ADME, organism-based, Macaca mulatta.
Data set [14] is described as follows: Volume of distribution at steady state in dog at 0.25 mg/kg, iv and 1 mg/kg, po. The format is ADME, organism-based, Canis lupus familiaris. Conditions: in vivo, read-out: Vdss.
Data set [15] deals with Voltage-gated inwardly rectifying potassium channel KCNH2 (Homo sapiens, UniProt Q12809). The data set is described as follows: Inhibition of hERG potassium channel. The data set is classed as toxicity. (The hERG channel carries a current that helps repolarise heart muscle cells.)
Data set [16] is described as follows: Half life in dog at 0.25 mg/kg, iv and 1 mg/kg, po. The data set is classed as ADME, organism-based, Canis lupus familiaris. The settings on record: in vivo.
Data set [17] is described as follows: Oral bioavailability in rhesus monkey at 2 mg/kg. The format is ADME, organism-based, Macaca mulatta. Conditions: in vivo.
The nature of data set [18]: Oral bioavailability in mouse at 2 mg/kg. The format is ADME, organism-based. The settings on record: in vivo.
Data set [19] in a line: Clearance in rhesus monkey at 0.5 mg/kg, iv and 2 mg/kg, po. The data set is classed as ADME, organism-based, Macaca mulatta. The settings on record: in vivo.
Data set [20] is described as follows: Clearance in rat at 1 mg/kg, iv and 2 mg/kg, po. The data set is classed as ADME, organism-based. The settings on record: in vivo.
Data set [21] relates to Rhesus monkey. The data set is described as follows: Inhibition of glucagon-dependent glucose excursion in rhesus monkey at 3 mg/kg, po. The data set is classed as functional, organism-based. Details: dose 3 mg/kg. The settings on record: Macaca mulatta.
Data set [22] in a line: Antagonist activity against rhesus monkey glucagon receptor assessed as cAMP accumulation. The data set is classed as functional, Macaca mulatta.
A short description of data set [23]: Clearance in dog at 0.25 mg/kg, iv and 1 mg/kg, po. The data set is classed as ADME, organism-based, Canis lupus familiaris. Conditions: in vivo.
A further data set addresses Cytochrome P450 3A4 (Homo sapiens, UniProt P08684). Put plainly: Inhibition of CYP3A4. The format is ADME.
The nature of data set [24]: Volume of distribution at steady state in rat at 1 mg/kg, iv and 2 mg/kg, po. The settings on record: in vivo, read-out: Vdss. The data set is classed as ADME, organism-based.
A further data set concerns the target Cytochrome P450 2C9 (Homo sapiens, UniProt P11712). Put plainly: Inhibition of CYP2C9. The format is ADME.
Data set [25] in a line: Clearance in mouse at 1 mg/kg, iv and 2 mg/kg, po. The data set is classed as ADME, organism-based. The settings on record: in vivo.
The nature of data set [26]: Volume of distribution at steady state in rhesus monkey at 0.5 mg/kg, iv and 2 mg/kg, po. Conditions: in vivo, read-out: Vdss. The data set is classed as ADME, organism-based, Macaca mulatta.
Data set [27] is described as follows: Half life in rat at 1 mg/kg, iv and 2 mg/kg, po. The format is ADME, organism-based. The settings on record: in vivo.
The target of the next data set is Cytochrome P450 2D6 (Homo sapiens, UniProt P10635). Put plainly: Inhibition of CYP2D6. The format is ADME.
Data set [28] has as its system Mus musculus. Put plainly: Reduction of glucose level in po dosed fat diet-induced diabetic mouse transgenic model expressing human glucagon receptor administered for 10 days. The data set is classed as functional, organism-based.

Active and inactive are the calls of the source. The rule behind the calls is not given here.

Chain of Glucagon-like peptide 1 receptor, Homo sapiens (P43220 whole entry, looked up): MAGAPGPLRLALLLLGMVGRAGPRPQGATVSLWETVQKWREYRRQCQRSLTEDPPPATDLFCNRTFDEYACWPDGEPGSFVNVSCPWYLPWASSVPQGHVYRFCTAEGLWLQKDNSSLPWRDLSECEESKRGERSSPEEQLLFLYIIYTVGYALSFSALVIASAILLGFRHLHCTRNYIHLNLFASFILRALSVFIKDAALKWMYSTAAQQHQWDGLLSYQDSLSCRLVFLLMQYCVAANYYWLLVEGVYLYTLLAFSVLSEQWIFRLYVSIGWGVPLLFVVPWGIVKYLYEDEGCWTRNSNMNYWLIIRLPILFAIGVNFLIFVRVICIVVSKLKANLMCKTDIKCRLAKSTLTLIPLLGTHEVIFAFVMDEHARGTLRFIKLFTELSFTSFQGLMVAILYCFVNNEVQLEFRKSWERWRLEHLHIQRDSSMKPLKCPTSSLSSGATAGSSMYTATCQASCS
T1 sequence (P47871 whole entry): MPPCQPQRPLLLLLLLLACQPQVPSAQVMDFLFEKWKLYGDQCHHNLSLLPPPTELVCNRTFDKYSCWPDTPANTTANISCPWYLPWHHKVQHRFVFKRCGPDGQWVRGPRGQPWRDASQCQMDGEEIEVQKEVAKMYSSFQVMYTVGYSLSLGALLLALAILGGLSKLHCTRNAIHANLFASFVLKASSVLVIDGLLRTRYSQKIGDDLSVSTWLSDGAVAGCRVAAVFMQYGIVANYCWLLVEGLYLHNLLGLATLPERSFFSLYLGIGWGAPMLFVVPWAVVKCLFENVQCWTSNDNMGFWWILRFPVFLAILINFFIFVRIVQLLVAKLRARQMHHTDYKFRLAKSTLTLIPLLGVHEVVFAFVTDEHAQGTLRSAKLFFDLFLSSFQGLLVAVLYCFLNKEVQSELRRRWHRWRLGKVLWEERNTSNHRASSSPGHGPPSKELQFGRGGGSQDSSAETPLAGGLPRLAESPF
Chain of Cytochrome P450 2C9 (P11712 whole entry): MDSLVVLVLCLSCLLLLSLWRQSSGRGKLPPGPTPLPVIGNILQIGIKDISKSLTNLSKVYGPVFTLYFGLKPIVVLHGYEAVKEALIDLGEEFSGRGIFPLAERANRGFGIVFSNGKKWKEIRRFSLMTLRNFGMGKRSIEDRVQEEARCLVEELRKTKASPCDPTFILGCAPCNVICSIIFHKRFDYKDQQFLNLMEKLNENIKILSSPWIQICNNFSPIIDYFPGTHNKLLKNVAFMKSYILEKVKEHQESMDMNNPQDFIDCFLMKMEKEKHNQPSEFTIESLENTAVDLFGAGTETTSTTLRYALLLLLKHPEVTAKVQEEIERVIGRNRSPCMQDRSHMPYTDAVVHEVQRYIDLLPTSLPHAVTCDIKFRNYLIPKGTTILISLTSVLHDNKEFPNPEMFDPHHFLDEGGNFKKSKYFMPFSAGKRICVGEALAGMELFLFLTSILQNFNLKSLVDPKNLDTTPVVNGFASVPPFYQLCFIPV
Chain of Cytochrome P450 3A4 (P08684 whole entry): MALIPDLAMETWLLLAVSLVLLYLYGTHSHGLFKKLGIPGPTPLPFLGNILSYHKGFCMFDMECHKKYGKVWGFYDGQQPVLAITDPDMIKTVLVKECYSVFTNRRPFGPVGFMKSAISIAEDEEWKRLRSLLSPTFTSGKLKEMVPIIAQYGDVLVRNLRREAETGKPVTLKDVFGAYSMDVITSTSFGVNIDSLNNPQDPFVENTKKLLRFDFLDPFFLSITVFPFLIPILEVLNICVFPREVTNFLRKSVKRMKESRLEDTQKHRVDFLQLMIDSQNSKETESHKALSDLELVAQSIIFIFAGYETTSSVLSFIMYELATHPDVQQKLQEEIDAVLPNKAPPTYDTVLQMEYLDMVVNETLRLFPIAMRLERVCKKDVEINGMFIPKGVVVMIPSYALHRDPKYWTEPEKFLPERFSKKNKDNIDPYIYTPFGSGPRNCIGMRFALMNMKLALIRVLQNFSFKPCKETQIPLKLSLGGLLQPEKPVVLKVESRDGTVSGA
Chain of Cytochrome P450 2D6 (P10635 whole entry): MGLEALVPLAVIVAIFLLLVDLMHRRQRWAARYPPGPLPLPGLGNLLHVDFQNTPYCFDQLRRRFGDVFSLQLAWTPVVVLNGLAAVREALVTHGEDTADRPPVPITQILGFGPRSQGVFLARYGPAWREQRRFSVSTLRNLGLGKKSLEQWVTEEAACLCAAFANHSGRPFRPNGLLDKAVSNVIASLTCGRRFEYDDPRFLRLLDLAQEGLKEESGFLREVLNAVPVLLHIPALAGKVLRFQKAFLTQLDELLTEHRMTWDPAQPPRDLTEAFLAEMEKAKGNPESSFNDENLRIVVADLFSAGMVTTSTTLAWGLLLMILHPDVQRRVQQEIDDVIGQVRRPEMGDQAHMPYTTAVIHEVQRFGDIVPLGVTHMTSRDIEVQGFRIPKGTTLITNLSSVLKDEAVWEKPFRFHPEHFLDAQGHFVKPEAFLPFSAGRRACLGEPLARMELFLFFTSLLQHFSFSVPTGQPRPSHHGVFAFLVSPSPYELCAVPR
Chain of Voltage-gated inwardly rectifying potassium channel KCNH2 (Q12809 whole entry): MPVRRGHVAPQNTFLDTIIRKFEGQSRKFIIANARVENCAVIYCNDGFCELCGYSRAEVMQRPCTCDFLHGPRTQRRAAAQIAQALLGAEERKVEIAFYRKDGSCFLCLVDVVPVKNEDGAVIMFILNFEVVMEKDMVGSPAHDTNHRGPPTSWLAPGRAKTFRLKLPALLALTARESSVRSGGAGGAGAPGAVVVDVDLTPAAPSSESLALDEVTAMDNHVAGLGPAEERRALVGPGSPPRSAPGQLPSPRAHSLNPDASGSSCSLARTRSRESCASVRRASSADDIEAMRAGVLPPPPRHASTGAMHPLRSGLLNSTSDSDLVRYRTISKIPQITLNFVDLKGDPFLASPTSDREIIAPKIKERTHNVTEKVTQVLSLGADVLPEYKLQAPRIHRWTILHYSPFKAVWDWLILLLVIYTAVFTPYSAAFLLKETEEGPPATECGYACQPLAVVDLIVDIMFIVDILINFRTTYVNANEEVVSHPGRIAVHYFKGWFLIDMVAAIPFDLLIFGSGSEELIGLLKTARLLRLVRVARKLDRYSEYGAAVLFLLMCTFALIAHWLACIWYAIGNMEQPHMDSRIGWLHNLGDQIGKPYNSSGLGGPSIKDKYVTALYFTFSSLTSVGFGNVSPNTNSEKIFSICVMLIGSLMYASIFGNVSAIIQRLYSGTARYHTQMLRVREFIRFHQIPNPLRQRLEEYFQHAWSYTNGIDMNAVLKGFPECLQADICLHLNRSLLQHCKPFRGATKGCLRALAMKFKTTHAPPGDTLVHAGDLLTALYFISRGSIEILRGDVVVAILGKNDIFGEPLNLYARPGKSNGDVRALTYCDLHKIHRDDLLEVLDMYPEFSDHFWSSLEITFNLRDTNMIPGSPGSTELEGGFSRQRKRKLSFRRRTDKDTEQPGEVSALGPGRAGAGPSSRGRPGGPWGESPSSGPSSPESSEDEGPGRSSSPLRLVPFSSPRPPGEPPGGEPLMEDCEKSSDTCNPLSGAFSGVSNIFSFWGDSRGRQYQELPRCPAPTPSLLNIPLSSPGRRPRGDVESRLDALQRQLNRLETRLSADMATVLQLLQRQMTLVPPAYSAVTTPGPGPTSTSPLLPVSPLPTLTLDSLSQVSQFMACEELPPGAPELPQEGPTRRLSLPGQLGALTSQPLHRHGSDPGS

Regarding `Cn1c(N(Cc2ccc(C(=O)Nc3nnn[nH]3)cc2)c2ccc(C(C)(C)C)cc2)nc2ccccc21`, the results for the concentration for half-maximal inhibition (IC50) at Glucagon receptor [1] and on Glucagon receptor [2] were 31 nM and 810 nM, respectively.

As for `CC(C)(C)[C@H]1CC[C@@]2(CCN(c3ccc(OC(F)(F)F)cc3)C(=O)N2Cc2ccc(C(=O)Nc3nnn[nH]3)cc2)CC1`, on Glucagon receptor [1], the IC50 (commonly the point on the concentration scale where inhibition reaches its midpoint) amounted to 32 nM.

In turn, `CCCn1c(N(Cc2ccc(C(=O)Nc3nnn[nH]3)cc2)[C@H]2CC[C@H](C(C)(C)C)CC2)nc2ccccc21` registered an IC50 on Glucagon receptor [1] of 24 nM.

Regarding `COc1ccc2c(c1)nc(N(Cc1ccc(C(=O)Nc3nnn[nH]3)cc1)[C@H]1CC[C@H](C(C)(C)C)CC1)n2C`, the 50% inhibitory concentration (IC50) in data set [3] is 2500 nM; at Glucagon receptor [1], 4 nM; on Glucagon receptor [2], 38 nM; in data set [5], 5900 nM. Besides, the Selectivity ratio in the data set listed under Homo sapiens [4] and in the data set filed under Homo sapiens [6] was more than 50 in each case.

In the case of `Cc1ccc2[nH]c(N(Cc3ccc(C(=O)Nc4nnn[nH]4)cc3)[C@H]3CC[C@H](C(C)(C)C)CC3)nc2c1`, the IC50 is 10 nM at Glucagon receptor [1] and more than 1000 nM at Glucagon receptor [2].

Turning to `Cn1c(N(Cc2ccc(C(=O)Nc3nnn[nH]3)cc2)[C@H]2CC[C@H](C(C)(C)C)CC2)nc2cc(C(F)(F)F)ccc21`, the bioavailability (usually the share of a dose that reaches the circulation, judged against a reference dose that is usually intravenous) in [7] was found to be 27%; in data set [12], 5%; in [17] it was 23%; in [18], 2%. The outcome in the data set with Mus musculus [8], with Rhesus monkey [9] and with Rhesus monkey [21] was Active. The concentration for half-maximal inhibition (IC50) in [3] was 6000 nM; in data set [15], more than 10000 nM; in data set [22] it was 111 nM; at Cytochrome P450 3A4, more than 10000 nM; on Glucagon receptor [1] it was 11 nM; against Cytochrome P450 2C9 it was more than 10000 nM. In addition, the IC50 on Glucagon receptor [2] is 62 nM; in [5], 6800 nM; against Cytochrome P450 2D6, more than 10000 nM. In addition, the half-life (as a rule, the time in which the quantity being followed falls by half) is 1.9 h in [10], 2.4 h in data set [13], 2.1 h in data set [16] and 1.6 h in [27]. Also, the Vd was found to be 0.33 L/kg in data set [11], 0.5 L/kg in data set [14], 0.74 L/kg in data set [24] and 0.8 L/kg in data set [26]. In addition, the Selectivity ratio in the data set filed under Homo sapiens [4] and in the data set filed under Homo sapiens [6] was more than 50 in each case. Besides, the clearance in [19] was found to be 16 mL/min/kg; in data set [20] it was 12 mL/min/kg; in data set [23], 3.8 mL/min/kg; in data set [25] it was 4 mL/min/kg. Besides, in the data set with Mus musculus [28], the Activity result was “Dose-dependent effect”.

As to `CCCOc1ccc2nc(N(Cc3ccc(C(=O)Nc4nnn[nH]4)cc3)[C@H]3CC[C@H](C(C)(C)C)CC3)n(C)c2c1`, the IC50 in data set [3] came out at 4900 nM; on Glucagon receptor [1], 1 nM; on Glucagon receptor [2], 8 nM; in data set [5], 5000 nM. Also, the Selectivity ratio in the data set filed under Homo sapiens [4] and in the data set filed under Homo sapiens [6] was more than 50 each time.

As to `Cn1c(N(Cc2ccc(C(=O)Nc3nnn[nH]3)cc2)[C@H]2CC[C@H](C(C)(C)C)CC2)nc2cc(O)ccc21`, the IC50 in data set [3] was more than 1000 nM; on Glucagon receptor [1], 2 nM; at Glucagon receptor [2] it was more than 1000 nM. The Selectivity ratio in the data set listed under Homo sapiens [4] and in the data set listed under Homo sapiens [6] was more than 50 in each case.

In the case of `Cc1ccc2[nH]c(N(Cc3ccc(C(=O)Nc4nnn[nH]4)cc3)c3ccc(Oc4ccc(Cl)cc4)c(Cl)c3)nc2c1`, the IC50 at Glucagon receptor [1] is 13 nM; at Glucagon receptor [2], more than 1000 nM.

`COc1ccc2nc(N(Cc3ccc(C(=O)Nc4nnn[nH]4)cc3)[C@H]3CC[C@H](C(C)(C)C)CC3)n(C)c2c1`: the concentration for half-maximal inhibition (IC50) in data set [3] is more than 1000 nM; on Glucagon receptor [1] it was 4 nM; on Glucagon receptor [2], 213 nM. Further, the Selectivity ratio in the data set filed under Homo sapiens [4] and in the data set listed under Homo sapiens [6] was more than 50 each time.

As to `CCOc1ccc2c(c1)nc(N(Cc1ccc(C(=O)Nc3nnn[nH]3)cc1)[C@H]1CC[C@H](C(C)(C)C)CC1)n2C`, the IC50 was 2800 nM in [3], 2 nM on Glucagon receptor [1], 22 nM on Glucagon receptor [2] and 7600 nM in data set [5]. Besides, the Selectivity ratio in the data set filed under Homo sapiens [4] and in the data set filed under Homo sapiens [6] was more than 50 each time.

As to `Cc1cc2nc(N(Cc3ccc(C(=O)Nc4nnn[nH]4)cc3)[C@H]3CC[C@H](C(C)(C)C)CC3)n(C)c2cc1C`, the 50% inhibitory concentration (IC50) in [3] was more than 10000 nM; at Glucagon receptor [1], 6 nM; on Glucagon receptor [2], 18 nM. Moreover, the Selectivity ratio in the data set listed under Homo sapiens [4] and in the data set listed under Homo sapiens [6] was more than 50 each time.

Consider `Cn1c(N(Cc2ccc(C(=O)Nc3nnn[nH]3)cc2)[C@H]2CC[C@H](C(C)(C)C)CC2)nc2cc(OC3CCCC3)ccc21`, for which the IC50 is 2000 nM in data set [3], 1 nM on Glucagon receptor [1], 9 nM at Glucagon receptor [2] and 5000 nM in [5]. Besides, the values for the half-life in [10] and in data set [27] were 3.2 h and 2.9 h, respectively. Besides, the values for the Vd in [11] and in data set [24] were 0.5 L/kg and 0.6 L/kg, respectively. Moreover, the values for the bioavailability in [12] and in [18] were 5% and 2%, respectively. Moreover, the Selectivity ratio in the data set filed under Homo sapiens [4] and in the data set filed under Homo sapiens [6] was more than 50 in each case. Besides, the clearance amounted to 13 mL/min/kg in data set [20] and 10 mL/min/kg in [25].
